In brackets after ≈: the same amount, converted by molar mass.
Legend:
[1] = Pharmacokinetic testing in SD (IGS) rats, oral administration, CNDAC serum concentration; assay type: in vivo; details: 10 mg/kg of body weight, rat, dose equivalent to 10 mg of CNDAC/kg of body weight, 0 to 8 hours after administration
Description: Pharmacokinetic Testing in SD (IGS) Rats
Test compounds were orally administered to SD (IGS) rats (product of Charles River Laboratories Japan, Inc.; 8 weeks old), and, based on the CNDAC serum concentration in the rats, orally administered absorbability and in vivo activation into CNDAC were evaluated.
In the morning of the test day, predetermined amounts of test compounds were each dissolved or suspended in a 0.5% hydroxypropylmethylcellulose solution prepared with 100 mM citrate buffer (pH 4.5), and orally administered. CNDAC was administered at a dose of 10 mg/kg of body weight, and other test compounds were administered at a dose equivalent to 10 mg of CNDAC/kg of body weight. Blood was collected from the jugular vein 0.5, 1, 2, 4, 6, and 8 hours after administration of the test compounds (two or three rats per point) to obtain serum. The serum concentrations of the compounds and CNDAC were measured using LC/MS, and the area under the curve (AUC) of the CNDAC serum concentration from 0 to 8 hours after administration were calculated.

[2] = system: Human colon cancer strain KM20C; assay: Antitumor test using tumor-subcutaneously-implanted nude mouse system upon oral administration at an equitoxic dose; assay type: in vivo, BALB/cA Jcl-nu mouse; details: once per day for 14 days; for tumor course after completion of administration (regrowth): 20th to 25th day after grouping (about 1 week after completion of administration)
Description: Antitumor Test of CNDAC, P-CNDAC, and Compounds 1 and 11 of the Present Invention using Tumor-Subcutaneously-Implanted Nude Mouse System Upon Oral Administration at an Equitoxic Dose.
(§1) Human colon cancer strain KM20C subcutaneously subcultured in a BALB/cA Jcl-nu mouse (product of Clea Japan Inc.) was prepared into fragments of 2 mm×2 mm, and subcutaneously implanted into the backs of 6-week-old BALB/cA Jcl-nu mice. On the 15th day after the day of implantation, the length of each tumor was measured along the major axis and minor axis, and the tumor volume was calculated using the following equation. The mice were then divided into several groups to reduce variations in tumor volume among the groups (5 or 6 mice per group). Vt=1/2(Vl)×(Vs)2 (Equation 5) wherein Vt represents a tumor volume, Vl represents the length along the tumor major axis, and Vs represents the length along the tumor minor axis.
CNDAC, P-CNDAC, and Compounds 1 and 11 were each dissolved or suspended in a 0.5% hydroxypropylmethylcellulose solution prepared with 100 mM citrate buffer (pH 5.0), and, from the day after the day of grouping, orally administered at an equitoxic dose once per day for 14 days.
With respect to the mice in each group, the length of each of the subcutaneously implanted tumors was measured along the major axis and minor axis twice a week. RTV was calculated as a reference of tumor growth using the following equation to evaluate antitumor effects. RTV=Vt1/Vt2, (Equation 6)
wherein RTV represents a relative tumor volume, Vt1 represents the tumor volume on the day of evaluation, and Vt2 represents the tumor volume on the day of grouping.

[3] = Measurement of water solubility; details: for solubility at 75 min: water, 37 °C, thermodynamic from solid
Description: Measurement of Water Solubility
Test compounds (2 mg or more) were each suspended in water (1 ml), then sonicated for 10 seconds, and incubated at 37° C. for 75 minutes. After filtration through a membrane filter (Millex-LG, 0.2 μm, product of Millipore Corporation), 100 μl of the obtained filtrate was diluted with acetonitrile (100 μl), and analyzed using a high performance liquid chromatograph apparatus.
The solubility of each test compound in water was calculated from the calibration curve.

[4] = system: Human colon cancer strain KM20C; assay: Antitumor test using tumor-subcutaneously-implanted nude mouse system upon oral administration (equimolar dose); assay type: in vivo, BALB/cA Jcl-nu mouse; details: once per day for 14 days, dose equimolar to 18 mg of CNDAC/kg of body weight per day, evaluated on the 29th day after grouping, vs untreated group
Description: Antitumor Test using Tumor-Subcutaneously-Implanted Nude Mouse System Upon Oral Administration
as §1, with “When” for “On”, “average tumor volume exceeded 100 mm^3,” for “15th day after the day of implantation,”, “Vt=½(Vl)×(Vs)^2,” for “Vt=1/2(Vl)×(Vs)2”, “1)” for “5) wherein Vt represents a tumor volume, Vl represents the length along the tumor major axis, and Vs represents the length along the tumor minor axis.”
wherein Vt represents a tumor volume, Vl represents the length along the tumor major axis, and Vs represents the length along the tumor minor axis.
Test compounds were each dissolved or suspended in a 0.5% hydroxypropylmethylcellulose solution prepared with 100 mM citrate buffer (pH 5.0), and, from the day after the day of grouping, orally administered to the mice once per day for 14 days. The dose was set to be equimolar to 18 mg of CNDAC/kg of body weight per day.
On the 29th day after the day of grouping, with respect to the mice in each group, the longest diameter and shortest diameter of each of the subcutaneously implanted tumors were measured. The relative tumor volume (RTV) and the tumor growth inhibition rate (1R) were calculated using the following equation to evaluate antitumor effects. RTV=Vt1/Vt2, (Equation 2)
wherein RTV represents a relative tumor volume, Vt1 represents the tumor volume on the day of evaluation, and Vt2 represents the tumor volume on the day of grouping. IR(%)=[1−(RTVtest)/(RTVcont)]×100, (Equation 3)
wherein IR represents a tumor growth inhibition rate, RTVtest represents the average RTV value in a drug administration group, and RTVcont represents the average RTV value in an untreated group.

SMILES | solubility at 75 min [3] [µg/mL] | IR (%) tumor growth inhibition rate [4] [%] | melting point | also measured
N#C[C@H]1[C@H](O)[C@@H](CO)O[C@H]1n1ccc(N)nc1=O [CNDAC, 2′-cyano-2′-deoxy-1-β-D-arabinofuranosylcytosine, reference compound] | > 1000 | 54 |  | AUC(0-t) [1]: 493 ng·h/mL; tumor disappearance [2]: tumors did not disappear; tumor course after completion of administration (regrowth) [2]: tumor regrowth was observed; water solubility, in words ([3]; in water, 37° C.): extremely high water solubility
CCCCCCCCCOC(=O)Nc1ccn([C@@H]2O[C@H](CO)[C@@H](O)[C@@H]2C#N)c(=O)n1 [Compound 1, 4-N-(n-Nonyloxycarbonyl)-2′-cyano-2′-deoxy-1-β-D-arabinofuranosylcytosine] | 21.1 (≈ 49.9 µM) | 96 | 66 °C | reduction of tumor volume (RTV), FIG. 1 [2]: greater reduction of tumor volume than CNDAC and P-CNDAC; tumor disappearance [2]: tumor disappearance was achieved in one of the five cases; tumor course after completion of administration (regrowth) [2]: the tumor size continued to reduce even after completion of administration
CCCCC(CCCC)OC(=O)Nc1ccn([C@@H]2O[C@H](CO)[C@@H](O)[C@@H]2C#N)c(=O)n1 [Compound 2, 4-N-(Nonan-5-yloxycarbonyl)-2′-cyano-2′-deoxy-1-β-D-arabinofuranosylcytosine] |  |  | 83.6 °C | 
CC/C=C\CCCCCOC(=O)Nc1ccn([C@@H]2O[C@H](CO)[C@@H](O)[C@@H]2C#N)c(=O)n1 [Compound 3, 4-N—[(Z)-6-Nonen-1-yloxycarbonyl]-2′-cyano-2′-deoxy-1-β-D-arabinofuranosylcytosine] |  |  | 72.4 °C | 
CCCCC/C=C\CCOC(=O)Nc1ccn([C@@H]2O[C@H](CO)[C@H](O)[C@@H]2C#N)c(=O)n1 [Compound 4, 4-N—[(Z)-3-Nonen-1-yloxycarbonyl]-2′-cyano-2′-deoxy-1-β-D-arabinofuranosylcytosine] |  | 93 |  | 
CCCCCC/C=C/COC(=O)Nc1ccn([C@@H]2O[C@H](CO)[C@@H](O)[C@@H]2C#N)c(=O)n1 [Compound 5, 4-N—[(E)-2-Nonen-1-yloxycarbonyl]-2′-cyano-2′-deoxy-1-β-D-arabinofuranosylcytosine] |  |  | 71.1 °C | 
C=CCCCCCCCOC(=O)Nc1ccn([C@@H]2O[C@H](CO)[C@@H](O)[C@@H]2C#N)c(=O)n1 [Compound 6, 4-N-(8-Nonen-1-yloxycarbonyl)-2′-cyano-2′-deoxy-1-β-D-arabinofuranosylcytosine] |  |  | 72.7 °C | 
CCCCCC/C=C\COC(=O)Nc1ccn([C@@H]2O[C@H](CO)[C@@H](O)[C@@H]2C#N)c(=O)n1 [Compound 7, 4-N—[(Z)-2-Nonen-1-yloxycarbonyl]-2′-cyano-2′-deoxy-1-β-D-arabinofuranosylcytosine] | > 50 | 96 |  | 
CCCCCCOC(=O)OC[C@H]1O[C@@H](n2ccc(N)nc2=O)[C@@H](C#N)[C@@H]1O [Compound 8, 5′-O-(n-Hexyloxycarbonyl)-2′-cyano-2′-deoxy-1-β-D-arabinofuranosylcytosine] | > 50 | 76 | 154.1 °C | 
CCCCCCCOC(=O)OC[C@H]1O[C@@H](n2ccc(N)nc2=O)[C@@H](C#N)[C@@H]1O [Compound 9, 5′-O-(n-Heptyloxycarbonyl)-2′-cyano-2′-deoxy-1-β-D-arabinofuranosylcytosine] | > 50 | 78 | 152.2 °C | 
CCCCCCCCOC(=O)OC[C@H]1O[C@@H](n2ccc(N)nc2=O)[C@@H](C#N)[C@@H]1O [Compound 10, 5′-O-(n-Octyloxycarbonyl)-2′-cyano-2′-deoxy-1-β-D-arabinofuranosylcytosine] | > 50 | 89 | 143.1 °C | 
CCCCC(CCCC)OC(=O)OC[C@H]1O[C@@H](n2ccc(N)nc2=O)[C@@H](C#N)[C@@H]1O [Compound 11, 5′-O-(Nonan-5-yloxycarbonyl)-2′-cyano-2′-deoxy-1-β-D-arabinofuranosylcytosine] | 49.5 (≈ 117 µM) | 93 | 167.2 °C | reduction of tumor volume (RTV), FIG. 1 [2]: greater reduction of tumor volume than CNDAC and P-CNDAC; tumor course after completion of administration (regrowth) [2]: the tumor size continued to reduce even after completion of administration
CC(C)CC(CC(C)C)OC(=O)OC[C@H]1O[C@@H](n2ccc(N)nc2=O)[C@@H](C#N)[C@@H]1O [Compound 14, 5′-O-(2,6-Dimethylheptan-4-yloxycarbonyl)-2′-cyano-2′-deoxy-1-β-D-arabinofuranosylcytosine] |  |  | 182.7 °C (dec.) | 
CCCCCCCCCCOC(=O)Nc1ccn([C@@H]2O[C@H](CO)[C@@H](O)[C@@H]2C#N)c(=O)n1 [Compound 15, 4-N-(n-Decyloxycarbonyl)-2′-cyano-2′-deoxy-1-β-D-arabinofuranosylcytosine] |  | 22 | 97 °C | 
CCCCCCCCOC(=O)Nc1ccn([C@@H]2O[C@H](CO)[C@@H](O)[C@@H]2C#N)c(=O)n1 [Compound 16, 4-N-(n-Octyloxycarbonyl)-2′-cyano-2′-deoxy-1-β-D-arabinofuranosylcytosine] |  | 38 | 67.5 °C | 
N#C[C@H]1[C@H](O)[C@@H](COC(=O)Oc2ccc(Cl)cc2)O[C@H]1n1ccc(N)nc1=O [Compound 17, 5′-O-(4-Chlorophenyloxycarbonyl)-2′-cyano-2′-deoxy-1-β-D-arabinofuranosylcytosine] |  | 58 | 113 °C | 
CCCCCCCCCCCCCCCC(=O)Nc1ccn([C@@H]2O[C@H](CO)[C@@H](O)[C@@H]2C#N)c(=O)n1 [P-CNDAC, 4-N-palmitoyl-2′-cyano-2′-deoxy-1-β-D-arabinofuranosylcytosine, reference compound] |  |  |  | tumor disappearance [2]: tumors did not disappear; tumor course after completion of administration (regrowth) [2]: tumor regrowth was observed; water solubility, in words ([3]; in water, 37° C.): low water solubility; Water Solubility ([3]; in water, 37° C., 75 minutes, filtrate analysed by HPLC): <0.5 µg/mL
